Data: patent US20190078143A1, “METHOD FOR TREATING NEURODEVELOPMENTAL DISORDERS” (New York University, priority 2017, published 2019)
“Also recorded” adds a separate entry of the source.

Experiments:
[1] = system: segmented filamentous bacteria (SFB); conditions: commensal bacteria in laboratory mice, general statement; cited from earlier work
[2] = system: IL-17a; assay: Maternal plasma IL-17a ELISA after poly(I:C) at E12.5; type: in vivo, mouse; conditions: poly(I:C)-injected pregnant dams, 48 hrs after poly(I:C) at E12.5, compared to control group
Procedure: (§1) Mice were mated overnight and females were checked daily for the presence of seminal plugs, noted as embryonic day 0.5. On E12.5, pregnant female mice were weighed and injected with a single dose (20 mg/kg; i.p.) of poly(I:C) (Sigma Aldrich) or PBS vehicle. Each dam was returned to its cage and left undisturbed until the birth of its litter. All pups remained with the mother until weaning on postnatal day 21-28 (P21-P28), at which time mice were group housed at a maximum of 5 per cage with same-sex littermates.
(§2) For co-housing experiments, age-matched SFB-absent mice (from Jackson Laboratory) were co-housed with SFB-present mice (from Taconic Biosciences) in sterilized cages for two weeks at a ratio of 2:3, with unrestricted access to food and water. For SFB-gavaging experiments, four fecal pellets of SFB mono-colonized mice (provided by Dan Littman) were dissolved in 20 ml sterile PBS and filtered through a 100 μm cell strainer. 200 μl of fecal suspensions were gavaged via oral route to 4 week-old female Jackson mice. Control mice were gavaged with PBS. The SFB colonization was tested on day 7 following co-housing or SFB-gavaging. […]
IL-17a, TNF-α, IFN-β, IL-1β and IL-23 levels were measured according to the manufacturer's protocol (BioLegend). IL-6 and IFN-γ levels were measured according to the manufacturer's protocol (eBioscience).

[3] = system: Th17 cells in the small intestine; assay: Flow cytometry of ileal CD4+ T cells for IL-17a and RORγt in poly(I:C)-treated dams; type: in vivo, mouse; conditions: poly(I:C)-injected pregnant dams, E14.5, compared to control group
Procedure: (§3) For co-housing experiments, age-matched SFB-absent mice (from Jackson Laboratory) were co-housed with SFB-present mice (from Taconic Biosciences) in sterilized cages for two weeks at a ratio of 2:3, with unrestricted access to food and water. For SFB-gavaging experiments, four fecal pellets of SFB mono-colonized mice (provided by Dan Littman) were dissolved in 20 ml sterile PBS and filtered through a 100 μm cell strainer. 200 μl of fecal suspensions were gavaged via oral route to 4 week-old female Jackson mice. Control mice were gavaged with PBS. The SFB colonization was tested on day 7 following co-housing or SFB-gavaging. For ablation of intestinal bacteria, Taconic-derived female mice were orally gavaged with vancomycin hydrochloride (Fisher) (2.5 mg/kg) every two days, starting 7 days prior to breeding. Mouse fecal pellets were collected and stored at −80° C. before and after vancomycin treatments.
For mononuclear cell isolations, both mesenteric fat tissues and Peyer's patches were carefully removed from intestinal tissues. […]
Mononuclear cells were incubated with or without 50 ng/ml phorbol myristate acetate (PMA) (Sigma) and 500 ng/ml ionomycin (Sigma) in the presence of GolgiStop (BD) in complete T cell media at 37° C. for 5 h. […] All data were re-analyzed using FlowJo (Tree Star).

[4] = system: segmented filamentous bacteria (SFB); assay: 16S rRNA qPCR of SFB levels in mouse fecal samples; type: in vivo; conditions: B6 mice before/after vancomycin treatment
Procedure: as §3
Bacterial genomic DNA was isolated from the fecal pellets of mice with phenol-chloroform extraction. qPCR was performed to quantify relative abundance of SFB, human commensal bacteria or total bacteria using group specific 16S rDNA primers (Table 3, FIG. 16). Undetected qPCR values from non-colonized samples were replaced with a Ct value of 40 for the purpose of comparison.

[5] = system: MIA offspring; assay: Behavioral assays (USV, marble burying, open field, three-chamber sociability) in offspring of poly(I:C)-injected dams; type: in vivo, mouse; conditions: poly(I:C)-injected mothers pre-treated with vancomycin, oral gavage every two days from 7 days before breeding
Procedure: as §1, with “littermates. […]” for “littermates.”
On P9, both male and female offspring mice were removed from the nest and habituated to the testing room for 30 min. […] Ultrasonic vocalizations (USVs) were detected for 3 min using an UltraSoundGateCM16/CMPA microphone (AviSoft) in the sound attenuation chamber under stable temperature and light control, and recorded with SAS Prolab software (AviSoft). USVs were measured between 33-125 kHz using Ultravox software (Noldus Information Technology, USA). Due to the unreliability of automated USV scoring, all pup USV calls were counted manually and plotted on the y-axis. […]
8-12-week-old male mice were tested for social behavior using the three-chamber social approach paradigm. […] Experimental mice were given 10 min to explore both chambers and measured for approach behavior as interaction time (i.e. sniffing, approach) with targets in each chamber (within 2 cm). […]

[6] = system: cortical patches (SATB2) in primary somatosensory cortex; assay: Cortical patches by SATB2 immunohistochemistry in adult MIA offspring brains; type: in vivo, mouse; conditions: offspring of poly(I:C)-injected mothers pre-treated with vancomycin
Procedure: as §1
as §2, with “strainer.” for “strainer. 200 μl of fecal suspensions were gavaged via oral route to 4 week-old female Jackson mice. Control mice were gavaged with PBS. The SFB colonization was tested on day 7 following co-housing or SFB-gavaging.”
Adult male mice were perfused and fixed with 4% paraformaldehyde in PBS for overnight at 4° C. […] The cortical malformation images were analyzed using Image J software. […]
Cortical patches were identified as cortical regions devoid of SATB2 expression. The size of the cortical patches in the S1 was calculated using Zen software (Carl Zeiss). […] SATB2 positive cells were quantified manually.

Structure (SMILES): CN[C@H](CC(C)C)C(=O)N[C@H]1C(=O)N[C@@H](CC(N)=O)C(=O)N[C@H]2C(=O)N[C@H]3C(=O)N[C@H](C(=O)N[C@H](C(=O)O)c4cc(O)cc(O)c4-c4cc3ccc4O)[C@H](O)c3ccc(c(Cl)c3)Oc3cc2cc(c3O[C@@H]2O[C@H](CO)[C@@H](O)[C@H](O)[C@H]2O[C@H]2C[C@](C)(N)[C@H](O)[C@H](C)O2)Oc2ccc(cc2Cl)[C@H]1O [vancomycin]
- susceptibility of SFB to vancomycin [1]: susceptible
- levels of IL-17a in the maternal plasma [2]: reduction in the levels of IL-17a
- proportion of Th17 cells in the small intestine [3]: decrease in the proportion of Th17 cells
- intestinal colonization by SFB (qPCR of fecal samples) [4]: severely reduced
- development of behavioral abnormalities in MIA offspring (USV, marble burying, open field center time, % interaction) [5]: prevented induction of behavioral abnormalities; also recorded: prevented development of all four behavioral abnormalities
- cortical patches in adult offspring [6]: failed to develop cortical patches
